From the NIST ThermoML archive (doi:10.1021/je1003065)

Assay: mn = molality of the nth substance listed, in mol/kg
Conditions: Liquid, Vibrating tube method

[Br-].[Li+] [lithium bromide] + CCO
Conditions | mass density [kg/m3]
298.15 K, 60024 kPa, m1 = 0.9499 | 885.07
298.15 K, 69784 kPa, m1 = 0.2335 | 847.83
298.15 K, 69784 kPa, m1 = 0.9499 | 890.31
298.15 K, 69931 kPa, m1 = 0.5972 | 869.87
298.15 K, 69993 kPa, m1 = 1.462 | 920.05
298.15 K, 79215 kPa, m1 = 0.9499 | 895.14
298.15 K, 79970 kPa, m1 = 2.272 | 969.11
298.15 K, 80014 kPa, m1 = 2.833 | 998.77
298.15 K, 80151 kPa, m1 = 0.5972 | 875.11
298.15 K, 89921 kPa, m1 = 0.2335 | 857.88
298.15 K, 89926 kPa, m1 = 0.9499 | 900.43
298.15 K, 89927 kPa, m1 = 2.833 | 1003.47
298.15 K, 89963 kPa, m1 = 0.5972 | 879.79
298.15 K, 99468 kPa, m1 = 0.2335 | 862.11
298.15 K, 99739 kPa, m1 = 1.462 | 933.99
298.15 K, 99874 kPa, m1 = 0.5972 | 884.17
298.15 K, 99968 kPa, m1 = 2.833 | 1008.08
298.15 K, 99975 kPa, m1 = 0.9499 | 905.24
298.16 K, 1341 kPa, m1 = 1.462 | 876.32
298.16 K, 9986 kPa, m1 = 2.833 | 958.39
298.16 K, 20192 kPa, m1 = 0.5972 | 838.95
298.16 K, 39784 kPa, m1 = 0.2335 | 830.01
298.16 K, 49924 kPa, m1 = 2.833 | 983.25
298.16 K, 89994 kPa, m1 = 1.462 | 929.76
298.17 K, 9947 kPa, m1 = 1.462 | 882.69
298.17 K, 59942 kPa, m1 = 0.2335 | 842.36
298.17 K, 69994 kPa, m1 = 3.368 | 1020.58
298.17 K, 80053 kPa, m1 = 1.462 | 925.1
298.18 K, 2703 kPa, m1 = 3.368 | 980.82
298.18 K, 5041 kPa, m1 = 3.368 | 982.47
298.18 K, 5165 kPa, m1 = 2.272 | 925.09
298.18 K, 9642 kPa, m1 = 2.272 | 928.25
298.18 K, 9735 kPa, m1 = 3.368 | 985.72
298.18 K, 9947 kPa, m1 = 0.5972 | 831.46
298.18 K, 19511 kPa, m1 = 3.368 | 992.17
298.18 K, 29936 kPa, m1 = 3.368 | 998.66
298.18 K, 40157 kPa, m1 = 3.368 | 1004.65
298.18 K, 49943 kPa, m1 = 3.368 | 1010.11
298.19 K, 2166 kPa, m1 = 2.272 | 922.88
298.19 K, 20358 kPa, m1 = 1.462 | 890.05
298.2 K, 20184 kPa, m1 = 2.272 | 935.31
298.2 K, 59916 kPa, m1 = 3.368 | 1015.42
313.09 K, 4759 kPa, m1 = 0.5972 | 815.39
313.11 K, 1319 kPa, m1 = 2.272 | 910.08
313.11 K, 2109 kPa, m1 = 1.462 | 864.85
313.11 K, 4863 kPa, m1 = 2.272 | 912.94
313.11 K, 9792 kPa, m1 = 0.5972 | 819.49
313.13 K, 5147 kPa, m1 = 1.462 | 867.25
313.13 K, 19554 kPa, m1 = 0.5972 | 827.15
313.14 K, 5102 kPa, m1 = 2.833 | 943.28
313.14 K, 9982 kPa, m1 = 2.272 | 916.81
313.14 K, 19956 kPa, m1 = 0.2335 | 804.92
313.14 K, 20135 kPa, m1 = 2.272 | 924.35
313.14 K, 29993 kPa, m1 = 2.272 | 931.18
313.14 K, 40450 kPa, m1 = 2.272 | 937.95
313.14 K, 50014 kPa, m1 = 0.2335 | 826.45
313.14 K, 59926 kPa, m1 = 2.833 | 978.99
313.15 K, 1021 kPa, m1 = 2.833 | 940.06
313.15 K, 1045 kPa, m1 = 0.9499 | 833.87
313.15 K, 2012 kPa, m1 = 0.2335 | 789.9
313.15 K, 5003 kPa, m1 = 0.9499 | 837.08
313.15 K, 5028 kPa, m1 = 0.2335 | 792.77
313.15 K, 9909 kPa, m1 = 1.462 | 870.96
313.15 K, 9978 kPa, m1 = 2.833 | 947
313.15 K, 9985 kPa, m1 = 0.9499 | 841.04
313.15 K, 19924 kPa, m1 = 0.9499 | 848.66
313.15 K, 19994 kPa, m1 = 1.462 | 878.53
313.15 K, 29451 kPa, m1 = 2.833 | 960.7
313.15 K, 29924 kPa, m1 = 0.2335 | 812.49
313.15 K, 29935 kPa, m1 = 0.9499 | 855.96
313.15 K, 29958 kPa, m1 = 0.5972 | 834.89
313.15 K, 29979 kPa, m1 = 1.462 | 885.66
313.15 K, 39844 kPa, m1 = 0.5972 | 841.83
313.15 K, 40021 kPa, m1 = 0.9499 | 862.92
313.15 K, 49925 kPa, m1 = 1.462 | 898.82
313.15 K, 49925 kPa, m1 = 2.272 | 943.67
313.15 K, 49963 kPa, m1 = 0.5972 | 848.54
313.15 K, 49968 kPa, m1 = 2.833 | 973.38
313.15 K, 50035 kPa, m1 = 0.9499 | 869.45
313.15 K, 59623 kPa, m1 = 1.462 | 904.69
313.15 K, 59831 kPa, m1 = 0.5972 | 854.67
313.15 K, 60002 kPa, m1 = 0.2335 | 832.74
313.15 K, 60047 kPa, m1 = 0.9499 | 875.6
313.15 K, 69784 kPa, m1 = 0.9499 | 881.21
313.15 K, 69784 kPa, m1 = 2.833 | 984.26
313.15 K, 69928 kPa, m1 = 1.462 | 910.56
313.15 K, 69997 kPa, m1 = 0.5972 | 860.59
313.15 K, 79828 kPa, m1 = 0.5972 | 865.9
313.15 K, 79877 kPa, m1 = 1.462 | 915.87
313.15 K, 79935 kPa, m1 = 0.9499 | 886.68
313.15 K, 80042 kPa, m1 = 0.2335 | 844.05
313.15 K, 89924 kPa, m1 = 0.2335 | 848.99
313.15 K, 89925 kPa, m1 = 2.833 | 994.32
313.15 K, 89926 kPa, m1 = 1.462 | 920.86
313.15 K, 89986 kPa, m1 = 0.9499 | 891.71
313.15 K, 89993 kPa, m1 = 0.5972 | 870.99
313.15 K, 99841 kPa, m1 = 0.5972 | 875.52
313.15 K, 99954 kPa, m1 = 0.9499 | 896.31
313.15 K, 99985 kPa, m1 = 0.2335 | 853.58
313.15 K, 99985 kPa, m1 = 2.833 | 999.09
313.16 K, 10023 kPa, m1 = 0.2335 | 796.94
313.16 K, 19926 kPa, m1 = 2.833 | 954.23
313.16 K, 39715 kPa, m1 = 1.462 | 892.26
313.16 K, 40032 kPa, m1 = 0.2335 | 819.73
313.16 K, 59995 kPa, m1 = 2.272 | 949.4
